The term IC50 denotes the concentration that inhibits the measured activity by half. A word on the inhibition: it is how much of the control response was suppressed.

The values that follow come from patent publication US20140113904A1, “TREATMENT OF CANCER WITH TOR KINASE INHIBITORS” (SIGNAL PHARMACEUTICALS, LLC, priority 2012, published 2014).

The test system of one assay is PC3 cells. As to the kind of experiment: Cell cycle distribution by flow cytometry-based PI staining. Details: species or system human. The protocol:
PC3 tumor cells were plated at 250,000 cells per well in a 6-well plate and allowed to equilibrate overnight in 5% CO2 at 37° C. For treatment, the media was aspirated to remove dead/floating cells before addition of 3 mL of media with or without compound. […] The cells were then processed for cell cycle analysis. The media was transferred into a 15 mL tube. The cells were trypsinized and transferred to the same tube. The cells were then spun at 12 000 rpm, re-suspended in 500 μL propidium iodide (PI) staining buffer, and incubated at room temperature in the dark for 30 minutes. The sample was then analyzed on a FACSCaliber instrument. The cell cycle experiments were performed on two independent occasions.
The raw data collected from BD FACS Calibur was analyzed by cell cycle software ModFit LT (Verity Software House, Inc). The histogram was generated using the automatic analysis setting. All numbers generated by ModFit LT were transferred to Microsoft Excel and graphed.
PC3 cells display an aneuploid phenotype which is evident in the comparison with HeLa cells.
(Flow cytometry measures light scatter and fluorescence of single cells or particles in a stream.)

The subject of assay [1] is PC3 tumors. As to the kind of experiment: Apoptosis TUNEL assay in PC3 tumors (Compound 1, rapamycin). It is filed as in vivo, SCID mice. Conditions: 25 mg/kg oral QD for 6 days, 2 hours after last dose. The protocol:
(§1) Two hours after the last dose of either vehicle, Compound 1, or rapamycin, the mice were euthanized and the tumors were dissected. The tumors were snap frozen in liquid nitrogen and processed for immunohistochemistry (IHC) and TUNEL.
To detect the apoptotic cells, fluorescence in situ cell death detection kit (Roche Biosciences) was used. Five to ten micron thick cryostat sections were fixed in 4% paraformaldehyde for 15 minutes at room temperature, washed, permeabilized with 0.3% triton X-100 and 0.1% sodium citrate in PBS for 10 minutes. Sections were then washed in PBS and incubated with a labeling solution containing TdT enzyme for 1 hour at 37° C. in the dark. The sections were washed in PBS, counterstained with Hoechst dye (0.4 μg/mL) at room temperature for 10 minutes and mounted in Prolong Gold antifade reagent.
(§2) The tissues sections processed for apoptosis or immunostained for proliferating cells (Ki-67) or blood vessels were quantitated using Metamorph software. Using 20× objective, 5 different fields from each section, 2 to 4 sections from each tumor, and 3 to 4 tumors from each treatment group or control were used for quantitation. The area of interest was expressed as the percent threshold area of the total area.

The next assay relates to Ki-67. As to the kind of experiment: Ki-67 immunohistochemistry in PC3 tumors (Compound 1). It is filed as in vivo, SCID mice. To be noted: 25 mg/kg oral QD for 6 days, 2 hours after last dose. The protocol: as §1
Five to ten micron thick cryostat sections of tumor samples were used for IHC. The expression of a cell proliferation marker Ki-67 was evaluated by IHC using anti-Ki-67 antibody. Anti-CD-31 antibody was used to determine blood vessel density and is a measurement of tumor angiogenesis. Frozen sections were fixed in 4% paraformaldehyde for 10 minutes at room temperature, washed in PBS, blocked and permeabilized with normal goat serum and triton x-100. Sections were then incubated with primary antibody (overnight) followed by incubation with secondary antibody (60 minutes). […] The sections were visualized with a Nikon E800 microscope equipped with fluorescence detection equipment and a digital camera attached to a computer.
as §2

In another assay the test system is PC3 cell line. As to the kind of experiment: WST-1 cell proliferation assay (Compound 2). It is filed as cell-based. To be noted: Homo sapiens. The protocol: All growth inhibition experiments were repeated on different occasions at least twice. Potency was determined by calculating the IC50 value using the data describing the growth inhibition curve. A reference compound was included in each plate assay to monitor inter-assay variation and the IC50 value for the reference compound was used as part of the acceptance criteria for the assay. […] Next, compound was added to the designated well at a dilution of 1:10 (i.e., 20 μL of the diluted compound was added to 180 μL of culture media in each well). The final dilution of compound was 1:500, which yielded a final DMSO concentration of 0.2% in each well. All concentrations were performed in triplicate. Additionally, each plate tested contained cells treated with a reference compound in order to evaluate interassay variation and the IC50 value generated was used as criteria in accepting the test data. […] Cell proliferation was assessed using the WST-1 assay, which is based on measurement of metabolic activity via the reduction of tetrazolium salts to formazan salts. […] Absorbance was measured at 450 nm on the VICTOR™ X2 multilabel plate reader (PerkinElmer). […] The software (XLfit from IDBS) calculated the percentage inhibition at each concentration of compound by normalizing to the DMSO control values. […] Percentage inhibition curves were plotted and IC50 values calculated.

For the next assay, the system named is pDNA-PK (S2056). As to the kind of experiment: pDNA-PK (S2056) immunohistochemistry in PC3 tumors (Compound 2). To be noted: 5 mg/kg QD for 6 days. The assay is classed as in vivo, SCID mice.
Assay [2] relates to PC3 tumors. As to the kind of experiment: Apoptosis TUNEL assay in PC3 tumors (Compound 2). It is filed as in vivo, SCID mice. Conditions: 5 mg/kg oral QD for 6 days, data not shown.

Read-outs that look alike come from different tables or passages of the source.

In the case of `CO[C@H]1CC[C@H](N2C(=O)CNc3ncc(-c4ccc(C(C)(C)O)nc4)nc32)CC1` [Compound 1, 7-(6-(2-hydroxypropan-2-yl)pyridin-3-yl)-1-((1r,4r)-4-methoxycyclohexyl)-3,4-dihydropyrazino-[2,3-b]pyrazin-2(1H)-one], the “% G1” value with PC3 cells (0.5 μM, 24 hours) amounted to 81.1%; in the assay with PC3 cells (1 μM, 24 hours), 88.6%; in the assay with PC3 cells (5 μM, 24 hours), 89.2%. Further, the “% G1a” value in the assay with PC3 cells (0.5 μM, 24 hours) is listed as 79%; in the assay on PC3 cells (1 μM, 24 hours), 84.8%; in the assay with PC3 cells (5 μM, 24 hours), 83.9%. The “induction of apoptosis (sub-G1 peak)” value with PC3 cells (24 hours) was “did not appear to be induction of apoptosis”. Besides, the “effect on cell cycle distribution” value in the assay with PC3 cells (concentrations relevant to growth inhibition) is given as “capable of inducing a G1 arrest”. Besides, in the assay on PC3 tumors [1], the “TUNEL-positive cells compared with the vehicle control” value is on record as “about a two fold increase”. Besides, the “reduction in the number of proliferating cells (Ki-67) vs vehicle” value with Ki-67 was determined as 84%.

Turning to `CCN1C(=O)CNc2ncc(-c3ccc(-c4nc[nH]n4)nc3C)nc21` [Compound 2, 1-ethyl-7-(2-methyl-6-(1H-1,2,4-triazol-3-yl)pyridin-3-yl)-3,4-dihydropyrazino[2,3-b]pyrazin-2(1H)-one], the IC50 in the assay with PC3 cell line (PC-3, 72 h, PC3 cell line, 3 days, average, read-out: growth inhibition IC50) was 140 nM; in the assay on PC3 cell line (PC-3, prostate tumor cells, read-out: growth inhibition IC50 values), 140 to 1310 nM. The “reduction in threshold area positive for pDNA-PK (S2056) vs vehicle” value in the assay on pDNA-PK (S2056) (2 hours after the last dose) came to 98%. Further, the inhibition at 5 mg/kg in the assay on pDNA-PK (S2056) (Mus musculus, through 24 hours after the last dose, read-out: pDNA-PK (S2056) inhibition (normalized to total DNA-PKcs)) is roughly 90%. Besides, the “number of TUNEL-positive cells vs vehicle” value in the assay with PC3 tumors [2] is “No significant change”.
